Biological target: T1, Se-DSP1 (Spodoptera exigua, UniProt A0A5P9L9K9)
T1 construct: full-length ORF, 505 residues; pET vector, bacterial expression, 6xHis and V5 tags, Ni-NTA then Sephadex G-100
T1 sequence (A0A5P9L9K9 1-505): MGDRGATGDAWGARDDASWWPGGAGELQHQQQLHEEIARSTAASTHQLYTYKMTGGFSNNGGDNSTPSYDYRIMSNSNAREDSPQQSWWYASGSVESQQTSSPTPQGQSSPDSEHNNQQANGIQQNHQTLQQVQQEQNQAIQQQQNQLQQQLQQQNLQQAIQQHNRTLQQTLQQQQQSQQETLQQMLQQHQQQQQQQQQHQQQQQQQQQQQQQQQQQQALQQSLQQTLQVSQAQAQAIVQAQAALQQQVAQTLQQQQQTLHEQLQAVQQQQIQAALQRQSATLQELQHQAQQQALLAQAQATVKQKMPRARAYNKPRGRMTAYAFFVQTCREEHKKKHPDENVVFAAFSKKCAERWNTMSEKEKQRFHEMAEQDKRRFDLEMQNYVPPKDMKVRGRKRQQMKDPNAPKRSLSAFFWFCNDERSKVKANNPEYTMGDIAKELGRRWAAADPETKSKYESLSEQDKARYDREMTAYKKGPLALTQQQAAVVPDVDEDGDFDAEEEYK
Assay: thermal shift assay (Protein Thermal Shift dye, StepOne real-time PCR)
Conditions: 0-20 μM SA; 500 ng protein; 25-99 °C at 2.96 °C/min; ligand binding equation fit of melting temperatures

Q: How did the Kd turn out when `O=C(O)c1ccccc1O` [SA, 2-hydroxybenzoic acid] was run?
A: The Kd was 1280 ± 50 nM.

Reference: article PMC8521015, “Salicylic Acid, a Plant Hormone, Suppresses Phytophagous Insect Immune Response by Interrupting HMG-Like DSP1” (Frontiers in Physiology, 2021)
